In patent publication US20240156093A1 (priority 2021, published 2024):
Converted amounts (≈) assume the structure as drawn.

Experiments:
physchem [1] = conditions: 25 °C, water
physchem [2] = test: physchem
[3] = tested on: influenza virus (enveloped virus); assay type: cell-based
[4] = tested on: feline calicivirus (non-enveloped virus); assay type: cell-based

**Q.** For `Nc1ccc(C(=O)O)cc1` [4-aminobenzoic acid], which solubility (physchem [1]) is on record?
**A.** 6000 µg/mL (≈ 43.8 mM)

**Q.** Which pKa (physchem [2]) does the source give for `O=C(O)CCCCC(=O)O` [Adipic acid, adipic acid] here?
**A.** 4.34

**Q.** For `CCCCCCCCCCCCc1ccc(S(=O)(=O)[O-])cc1.[Na+]` [Comparative example 2, sodium dodecylbenzene sulfonate], which “Influenza virus: Antiviral activity value” [3] is on record?
**A.** 2.0

**Q.** And the “Influenza virus: Virus infectivity titer common logarithmic value” [3]?
**A.** 4.5 PFU/cm^2

**Q.** And the “Feline calicivirus: Antiviral activity value” [4]?
**A.** 0.3

**Q.** And the “Feline calicivirus: Virus infectivity titer common logarithmic value” [4]?
**A.** 6.2 PFU/cm^2

**Q.** With `O=C(O)CCCCC(=O)O` [Comparative example 3, adipic acid] as the compound, how does the “Influenza virus: Antiviral activity value” [3] read?
**A.** 1.7

**Q.** What about the “Feline calicivirus: Antiviral activity value” [4] of the same compound?
**A.** 0.5

**Q.** What about the “Feline calicivirus: Virus infectivity titer common logarithmic value” [4] of the same compound?
**A.** 6 PFU/cm^2

**Q.** For `O=C(O)/C=C/C(=O)O` [Fumaric acid, fumaric acid], which solubility (physchem [1]) is on record?
**A.** 6300 µg/mL (≈ 54.3 mM)

**Q.** And the pKa (physchem [2])?
**A.** 3.02

**Q.** Which solubility (physchem [1]) does the source give for `CCCCCCCCCCCC(=O)O` [Lauric acid, lauric acid] here?
**A.** 4.8 µg/mL (≈ 0.024 mM)

**Q.** What about the pKa (physchem [2]) of the same compound?
**A.** 4.92

**Q.** Which pKa (physchem [2]) does the source give for `CCCCCCCC/C=C\CCCCCCCC(=O)O` [Oleic acid, oleic acid] here?
**A.** 5.35

**Q.** For `O=C(O)c1ccccc1C(=O)O` [Phthalic acid, phthalic acid], which solubility (physchem [1]) is on record?
**A.** 7200 µg/mL (≈ 43.3 mM)

**Q.** And the pKa (physchem [2])?
**A.** 2.94

**Q.** With `O=C(O)c1ccccc1O` [Salicylic acid, salicylic acid] as the compound, how does the solubility (physchem [1]) read?
**A.** 2000 µg/mL (≈ 14.5 mM)

**Q.** Which solubility (physchem [1]) does the source give for `CCCCCC(=O)O` [caproic acid] here?
**A.** 11000 µg/mL (≈ 94.7 mM)

**Q.** With `CCCCCCC(=O)O` [enanthic acid] as the compound, how does the solubility (physchem [1]) read?
**A.** 2400 µg/mL (≈ 18.4 mM)

**Q.** For `O=C(O)c1cccc(C(=O)O)c1` [isophthalic acid], which solubility (physchem [1]) is on record?
**A.** 130 µg/mL (≈ 0.783 mM)

**Q.** With `CCCCCCCCC(=O)O` [pelargonic acid] as the compound, how does the solubility (physchem [1]) read?
**A.** 280 µg/mL (≈ 1.77 mM)

**Q.** Which solubility (physchem [1]) does the source give for `O=C(O)c1ccc(C(=O)O)cc1` [terephthalic acid] here?
**A.** 17 µg/mL (≈ 0.102 mM)
